The assay deals with PD patients. The experiment in a line: fMRI of PD patients performing paced finger tapping (PFT), on and off dopamine supplementation. Format: in vivo. Here is the method:
In this fMRI study, ten PD patients and thirteen healthy age-matched controls were imaged while performing the PFT. PD patients underwent two imaging sessions, one on and the other off dopamine supplementation. For this study whole-brain fMRI was performed on a 1.5 Tesla General Electric Signa scanner equipped with a 3-axis local gradient head coil and an elliptical end-capped quadrature radiofrequency coil. Foam padding was used to limit head motion within the coil. Echo-planar images were collected using a single-shot, blipped gradient-echo echo-planar pulse sequence (TE=40 ms, TR=3.0 seconds, 90° flip angle, FOV=240 mm, matrix=64×64). Twenty-two contiguous sagittal 6 mm thick slices were collected to provide coverage of the entire brain (voxel size 3.75×3.75×6 mm). Overall, a total of 136 images were collected per run. Prior to functional imaging, high-resolution, three-dimensional, spoiled gradient-recalled at steady-state (GRASS) anatomic images were collected (TE=5 ms, TR=24 ms, 40° flip angle, NEX=1, slice thickness=1.2 mm, FOV=24 cm, matrix=256×128) for anatomic localization and co-registration.

SMILES strings stand for the structures.

Take `N[C@@H](Cc1ccc(O)c(O)c1)C(=O)O` [Levodopa]: the “effect on the S task (fMRI activation)” value (PD patients ON vs OFF medication, S condition of PFT task) was “relatively little effect”. In addition, the “spatial extent of activation within the SMC, SMA, and putamen” value (PD patients, fMRI during PFT, on vs off dopamine replacement) is “increase”. Further, the brain activation patterns result (PD patients, fMRI during PFT, relative to healthy controls) was “partially “normalized””. Also, the PFT performance result (PD patients, on vs off dopamine supplementation) is recorded as “lack of improvement”.

The values are drawn from patent publication US20050107682A1, “fMRI system for use in assessing the efficacy of therapies in treating CNS disorders” (priority 2003, published 2005).
